Marks after values point to notes of the source that are not given here.
Test system: dogs (Beagle)
Assay: Intraocular pressure studies by pneumatonometry in dogs
Format: in vivo
Conditions: conscious Beagle dogs, topical 25 μL drop, 0.03% drug
Method: Intraocular pressure studies were carried out for compounds 1–3 by pneumatonometry in dogs (Beagle) of both sexes (10–15 kg). The animals remained conscious throughout the study and were gently restrained by hand. Drugs were administered topically to one eye as a 25 μL volume drop comprising 0.03% drug, 0.1% polysorbate 80:10 mM TRIS, the other eye received 0.1% polysorbate 80:10 mM TRIS. Proparacaine (0.1%) was used for corneal anesthesia during tonometry. Intraocular pressure was determined just before drug administration and at 2, 4 and 6 hours thereafter on each day of the 5 day study. […] Drug was administered immediately after the first IOP reading.

[1] = 0 hrs (just before drug administration)

Structure (SMILES)	Change in Intraocular Pressure (IOP) [1]	Change in Intraocular Pressure (IOP) (2 hrs)	Change in Intraocular Pressure (IOP) (4 hrs)	Change in Intraocular Pressure (IOP) (6 hrs)	Change in Intraocular Pressure (IOP) (24 hrs)
CCCCC[C@H](O)/C=C/[C@@H]1[C@@H](C/C=C\CCCC(=O)NCCc2ccc(O)c(O)c2)[C@@H](O)C[C@H]1O [Compound 2, (Z)-7-[(1R,2R,3R,5S)-3,5-Dihydroxy-2-((E)—(S)-3-hydroxy-oct-1-enyl)-cyclopentyl]-hept-5-enoic acid [2-(3,4-dihydroxy-phenyl)-ethyl]-amide]	0	−3.8*	−3.2**	−3.2**	−1.1*
CCCCC[C@H](O)/C=C/[C@@H]1[C@@H](C/C=C\CCCC(=O)NCCc2c[nH]c3ccc(O)cc23)[C@@H](O)C[C@H]1O [Compound 3, (Z)-7-[(1R,2R,3R,5S)-3,5-Dihydroxy-2-((E)—(S)-3-hydroxy-oct-1-enyl)-cyclopentyl]-hept-5-enoic acid [2-(5-hydroxy-1H-indol-3-yl)-ethyl]-amide]	0	−3.2*	−5.8*	−7.6**	−2.2

From patent US7186744B2, “Prostamides for the treatment of glaucoma and related diseases” (Allergan, Inc., priority 2003, dated 2007)
